Test results: ChEMBL document CHEMBL1201862, “PubChem BioAssay data set” (2004)
Activity calls are given as the source filed them. Rule as the data show it, for most assays here: actives have a measured IC50 and inactives only a lower limit.

Experiments:
Type in all cases: functional
[1] = molecular target: T1, Sentrin-specific protease 6 (Homo sapiens, UniProt Q9GZR1);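 also: Luminescence-based dose-response confirmatory assay of SENP6 inhibition, following up an ultra-high-throughput screen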
T1 sequence (Q9GZR1 whole entry): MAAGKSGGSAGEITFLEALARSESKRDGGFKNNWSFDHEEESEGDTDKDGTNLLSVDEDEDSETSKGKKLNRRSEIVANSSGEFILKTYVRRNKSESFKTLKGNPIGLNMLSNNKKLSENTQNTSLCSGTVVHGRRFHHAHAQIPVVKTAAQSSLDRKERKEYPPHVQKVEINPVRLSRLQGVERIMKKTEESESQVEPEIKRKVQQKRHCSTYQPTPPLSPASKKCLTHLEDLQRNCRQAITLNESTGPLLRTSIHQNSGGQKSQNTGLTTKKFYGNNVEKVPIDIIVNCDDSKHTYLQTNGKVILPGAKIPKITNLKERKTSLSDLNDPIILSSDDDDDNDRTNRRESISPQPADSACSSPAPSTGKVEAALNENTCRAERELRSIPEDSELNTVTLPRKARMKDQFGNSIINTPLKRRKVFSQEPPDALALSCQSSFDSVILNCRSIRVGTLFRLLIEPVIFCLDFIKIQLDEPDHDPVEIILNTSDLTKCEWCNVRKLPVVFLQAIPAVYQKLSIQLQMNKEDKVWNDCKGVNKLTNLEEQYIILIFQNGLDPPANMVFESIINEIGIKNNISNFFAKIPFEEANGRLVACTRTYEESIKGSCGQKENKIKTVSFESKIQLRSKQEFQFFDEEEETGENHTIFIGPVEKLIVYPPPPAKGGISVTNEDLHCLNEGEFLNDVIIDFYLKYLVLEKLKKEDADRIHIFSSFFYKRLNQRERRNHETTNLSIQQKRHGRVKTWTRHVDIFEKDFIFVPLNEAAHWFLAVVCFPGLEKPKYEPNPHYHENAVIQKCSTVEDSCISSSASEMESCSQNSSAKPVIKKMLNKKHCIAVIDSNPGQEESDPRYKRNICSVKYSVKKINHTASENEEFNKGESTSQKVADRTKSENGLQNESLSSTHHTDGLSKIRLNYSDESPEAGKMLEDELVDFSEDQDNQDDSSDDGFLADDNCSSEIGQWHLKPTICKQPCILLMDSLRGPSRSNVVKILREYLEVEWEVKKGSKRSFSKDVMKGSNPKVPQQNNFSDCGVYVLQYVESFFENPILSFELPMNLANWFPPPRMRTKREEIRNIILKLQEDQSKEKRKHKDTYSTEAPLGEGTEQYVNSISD

[2] = molecular target: T2, Sentrin-specific protease 7 (Homo sapiens, UniProt Q9BQF6);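 also: Luminescence-based dose-response confirmation of ultra-high-throughput screening hits, measuring inhibition of SENP7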
T2 sequence (Q9BQF6 whole entry): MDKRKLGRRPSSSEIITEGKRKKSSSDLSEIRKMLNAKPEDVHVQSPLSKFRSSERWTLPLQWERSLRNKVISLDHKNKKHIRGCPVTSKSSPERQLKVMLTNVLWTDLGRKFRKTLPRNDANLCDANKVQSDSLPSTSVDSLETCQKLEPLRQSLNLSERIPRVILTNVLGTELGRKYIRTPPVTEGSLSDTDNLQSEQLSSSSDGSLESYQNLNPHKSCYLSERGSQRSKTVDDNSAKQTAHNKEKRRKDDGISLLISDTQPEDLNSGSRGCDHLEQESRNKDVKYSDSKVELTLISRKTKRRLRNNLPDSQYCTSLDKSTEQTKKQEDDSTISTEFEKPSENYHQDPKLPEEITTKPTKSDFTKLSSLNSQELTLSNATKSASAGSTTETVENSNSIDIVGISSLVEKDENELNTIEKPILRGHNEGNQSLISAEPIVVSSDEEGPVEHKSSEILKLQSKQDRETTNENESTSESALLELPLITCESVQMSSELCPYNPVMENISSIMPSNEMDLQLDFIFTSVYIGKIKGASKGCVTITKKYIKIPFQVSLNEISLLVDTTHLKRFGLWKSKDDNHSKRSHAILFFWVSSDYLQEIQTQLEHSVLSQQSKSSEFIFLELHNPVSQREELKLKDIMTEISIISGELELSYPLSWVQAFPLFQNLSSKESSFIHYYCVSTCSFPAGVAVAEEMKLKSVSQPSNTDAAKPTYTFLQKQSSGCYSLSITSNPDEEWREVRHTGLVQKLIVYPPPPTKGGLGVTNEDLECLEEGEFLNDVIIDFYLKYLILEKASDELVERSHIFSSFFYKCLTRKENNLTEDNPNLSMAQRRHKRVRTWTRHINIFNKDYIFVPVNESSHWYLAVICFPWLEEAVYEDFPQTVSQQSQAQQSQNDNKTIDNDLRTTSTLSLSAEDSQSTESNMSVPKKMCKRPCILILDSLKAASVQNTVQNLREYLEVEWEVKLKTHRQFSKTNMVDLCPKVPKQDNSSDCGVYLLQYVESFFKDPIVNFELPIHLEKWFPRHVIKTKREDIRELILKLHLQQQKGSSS

[3] = molecular target: T3, High affinity choline transporter 1 (Homo sapiens, UniProt Q9GZV3); assay: human choline transporter blockers, potency – cell-based, 10-point CRC, membrane potential dye, dose response (AID 588401);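 also: membrane potential dye fluorescence of choline-evoked depolarization via CHT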
T3 sequence (Q9GZV3 whole entry): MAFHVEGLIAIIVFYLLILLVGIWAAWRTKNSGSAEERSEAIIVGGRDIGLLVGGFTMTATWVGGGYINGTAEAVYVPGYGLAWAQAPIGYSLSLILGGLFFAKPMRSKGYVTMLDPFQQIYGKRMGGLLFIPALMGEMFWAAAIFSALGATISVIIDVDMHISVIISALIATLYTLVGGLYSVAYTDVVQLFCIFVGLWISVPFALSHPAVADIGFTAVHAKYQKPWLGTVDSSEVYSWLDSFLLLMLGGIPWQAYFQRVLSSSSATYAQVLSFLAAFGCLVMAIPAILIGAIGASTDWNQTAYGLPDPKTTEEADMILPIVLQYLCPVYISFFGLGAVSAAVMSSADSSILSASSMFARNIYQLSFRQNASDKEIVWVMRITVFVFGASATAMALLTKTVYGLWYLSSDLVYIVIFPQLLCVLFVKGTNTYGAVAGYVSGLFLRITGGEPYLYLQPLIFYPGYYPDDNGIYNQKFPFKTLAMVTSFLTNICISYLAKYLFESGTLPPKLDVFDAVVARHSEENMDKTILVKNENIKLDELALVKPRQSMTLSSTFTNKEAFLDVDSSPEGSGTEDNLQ

[4] = molecular target: T3, High affinity choline transporter 1; assay: human choline transporter blockers, potency – cell-based, 5-point CRC, membrane potential dye, dose response (AID 504840)
[5] = molecular target: T4, Sentrin-specific protease 8 (Homo sapiens, UniProt Q96LD8);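 also: luminescence read-out of SENP8 inhibition, dose-response confirmation following an ultra-high-throughput screen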
T4 sequence (Q96LD8 whole entry): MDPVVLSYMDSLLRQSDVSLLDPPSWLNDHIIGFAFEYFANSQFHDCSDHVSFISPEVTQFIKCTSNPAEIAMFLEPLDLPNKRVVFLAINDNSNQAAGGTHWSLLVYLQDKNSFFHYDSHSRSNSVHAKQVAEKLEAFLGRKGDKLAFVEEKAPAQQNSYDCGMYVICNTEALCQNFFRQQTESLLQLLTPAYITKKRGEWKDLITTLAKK

Caspase-3 = molecular target: T5, Caspase-3 (Homo sapiens, UniProt P42574);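 also: Dose-response selectivity test against caspase-3 for candidate inhibitors of sentrin-specific proteases (SENPs)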
T5 sequence (P42574 whole entry): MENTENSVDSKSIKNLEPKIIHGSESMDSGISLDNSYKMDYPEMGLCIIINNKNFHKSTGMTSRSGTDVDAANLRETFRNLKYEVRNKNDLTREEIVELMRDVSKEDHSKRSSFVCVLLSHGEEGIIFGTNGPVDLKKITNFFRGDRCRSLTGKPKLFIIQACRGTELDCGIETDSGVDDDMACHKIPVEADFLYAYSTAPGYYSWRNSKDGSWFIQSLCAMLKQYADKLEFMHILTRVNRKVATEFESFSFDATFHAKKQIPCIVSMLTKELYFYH

Measured: IC50

Cn1c(SCc2ccc(C#N)cc2Cl)nc2ccccc21
active: [1] 10.8 µM | [2] 4.57 µM | [3] 3.4 µM | [4] 3.99 µM | [5] 14.8 µM | Caspase-3 8.4 µM
